The numbers were not newly measured in patent US12397068B2, “Structural design of a cranial nerve degeneration contrast agent precursors” (INSTITUTE OF NUCLEAR ENERGY RESEARCH, ATOMIC ENERGY …, priority 2022, dated 2025), which cites them from elsewhere.

The test system of series [1] is α-synuclein relative to Aβ and Tau proteins. Conditions: in vitro; in words only; background statement.
The conditions of series [2]: in words only; background statement.
For another series, the target named is α-synuclein fibrils (Homo sapiens, UniProt P37840). Conditions: in words only; background statement.

Regarding `O=C1Nc2ccccc2C1=Cc1ccccc1`, the “specificity for α-synuclein relative to β-amyloid (Aβ) and Tau” value in series [1] is reported as “low specificity”.

Consider `O=[N+]([O-])c1ccc2c(c1)Sc1cc(OC/C=C/[125I])ccc1N2` [SIL23], for which, in series [1], the “specificity for α-synuclein relative to β-amyloid (Aβ) and Tau” value was “reasonable degree in vitro specificity”. In series [2], the in vitro stability result is “low in vitro stability”.

Take `CN(C)c1ccc(/C=C/C=C/C2=[N+](C)C3=C(CCCC3)C2(C)C)cc1` [LDS 730]: the “specificity for α-synuclein relative to β-amyloid (Aβ) and Tau” value in series [1] is listed as “reasonable degree in vitro specificity”. Also, the in vitro stability entry in series [2] is reported as “low in vitro stability”.

In the case of `CC[n+]1ccc(/C=C/C=C/c2ccc(N(C)C)cc2)c2ccccc21.[O-][Cl+3]([O-])([O-])[O-]` [LDS 798], the “affinity for α-synuclein” value on α-synuclein fibrils is reported as “moderate affinity”. In addition, the “specificity for α-synuclein relative to β-amyloid (Aβ) and Tau” value in series [1] is on record as “reasonable degree in vitro specificity”. For the same compound, the in vitro stability entry in series [2] is recorded as “low in vitro stability”.

For `COc1ccc2c(c1)Sc1cc([N+](=O)[O-])ccc1N2` [SIL5], the “specificity for α-synuclein relative to β-amyloid (Aβ) and Tau” value in series [1] is on record as “reasonable degree in vitro specificity”. The in vitro stability result in series [2] is given as “low in vitro stability”.

For `O=[N+]([O-])c1ccc2c(c1)Sc1cc(OCCF)ccc1N2` [SIL26], the “specificity for α-synuclein relative to β-amyloid (Aβ) and Tau” value in series [1] is “reasonable degree in vitro specificity”. In addition, in series [2], the in vitro stability result was “low in vitro stability”.
